In patent US8497307B2, “Aryl guanidine F1F0-ATPase inhibitors and related methods” (The Regents of the University of Michigan, priority 2008, dated 2013):

System: Ramos cells
Test: Cytotoxicity in Ramos cells (cell death)
Assay type: cell-based
Method: The compounds listed in Table 7 were tested for cytotoxicity in Ramos cells. The assay was conducted as described in K. M. Johnson et al. Chemistry & Biology 2005, 12, 485-496.

Compared with CC(C)(C)c1ccccc1NC(=NC(=O)c1ccc(C(F)(F)F)cc1F)Nc1ccc2[nH]c(=O)oc2c1 [Compound I-107], CC(C)(C)c1ccccc1NC(=NC(=O)c1ccc(C(F)(F)F)cc1F)Nc1ccc2oc(=O)[nH]c2c1 [Compound I-132] is higher in EC50: less than 10 µM for the first, greater than 10 µM for the second.

CC(C)(C)c1cccc(NC(=NC(=O)c2ccc(C(F)(F)F)c(F)c2)Nc2ccc3[nH]c(=O)oc3c2)c1 [Compound I-108] and CC(C)(C)c1cccc(NC(=NC(=O)c2ccc(C(F)(F)F)cc2)Nc2ccc3[nH]c(=O)oc3c2)c1 [Compound I-120] cannot be ordered by EC50: less than 10 µM for the first, less than 10 µM for the second.

O=C(N=C(Nc1cccc(C2CC2)c1)Nc1ccc2[nH]c(=O)oc2c1)c1cccc(C(F)(F)F)c1 [Compound I-109] and N#Cc1cccc(C(=O)N=C(Nc2cccc(C3CC3)c2)Nc2ccc3[nH]c(=O)oc3c2)c1 [Compound I-110] cannot be ordered by EC50: less than 10 µM for the first, less than 10 µM for the second.

CC(C)(C)c1cccc(NC(=NC(=O)c2cccc(C#N)c2)Nc2ccc3[nH]c(=O)oc3c2)c1 [Compound I-111] and CC(C)(C)c1ccc(NC(=NC(=O)c2cccc(C#N)c2)Nc2ccc3[nH]c(=O)oc3c2)cc1 [Compound I-119] cannot be ordered by EC50: less than 10 µM for the first, less than 10 µM for the second.

N#Cc1cccc(C(=O)N=C(Nc2ccc3[nH]c(=O)oc3c2)Nc2ccccc2C2CC2)c1 [Compound I-112] and N#Cc1cccc(C(=O)N=C(Nc2ccc3[nH]c(=O)oc3c2)Nc2ccccc2Cl)c1 [Compound I-113] cannot be ordered by EC50: less than 10 µM for the first, less than 10 µM for the second.

N#Cc1cccc(C(=O)N=C(Nc2cccc(Cl)c2)Nc2ccc3[nH]c(=O)oc3c2)c1 [Compound I-114] and N#Cc1cccc(C(=O)N=C(Nc2ccc(Cl)cc2)Nc2ccc3[nH]c(=O)oc3c2)c1 [Compound I-115] cannot be ordered by EC50: less than 10 µM for the first, less than 10 µM for the second.

Compared with N#Cc1cccc(C(=O)N=C(Nc2cc(Cl)cc(Cl)c2)Nc2ccc3[nH]c(=O)oc3c2)c1 [Compound I-116], O=C(N=C(Nc1cc(Cl)cc(Cl)c1)Nc1ccc2[nH]c(=O)oc2c1)c1ccc(C(F)(F)F)cc1 [Compound I-125] is lower in EC50: greater than 10 µM for the first, less than 10 µM for the second. The second is the more potent here.

N#Cc1cccc(C(=O)N=C(Nc2ccc(C(F)(F)F)cc2)Nc2ccc3[nH]c(=O)oc3c2)c1 [Compound I-118] and N#Cc1cccc(C(=O)N=C(Nc2cccc(C(F)(F)F)c2)Nc2ccc3oc(=O)[nH]c3c2)c1 [Compound I-133] cannot be ordered by EC50: greater than 10 µM for the first, greater than 10 µM for the second.

O=C(N=C(Nc1ccc2[nH]c(=O)oc2c1)Nc1ccccc1C1CC1)c1ccc(C(F)(F)F)cc1 [Compound I-121] and O=C(N=C(Nc1ccc(C2CC2)cc1)Nc1ccc2[nH]c(=O)oc2c1)c1ccc(C(F)(F)F)cc1 [Compound I-137] cannot be ordered by EC50: less than 10 µM for the first, less than 10 µM for the second.

CC(C)(C)c1ccc(NC(=NC(=O)c2ccc(C(F)(F)F)cc2)Nc2ccc3[nH]c(=O)oc3c2)cc1 [Compound I-128] and CC(C)(C)c1ccccc1NC(=NC(=O)c1ccc(C(F)(F)F)cc1)Nc1ccc2oc(=O)[nH]c2c1 [Compound I-129] cannot be ordered by EC50: less than 10 µM for the first, less than 10 µM for the second.

First: CC(C)(C)c1ccccc1NC(=NC(=O)c1cccc(C#N)c1)Nc1ccc2oc(=O)[nH]c2c1 [Compound I-130]
Second: CC(C)(C)c1ccccc1NC(=NC(=O)c1ccc(C(F)(F)F)c(F)c1)Nc1ccc2oc(=O)[nH]c2c1 [Compound I-131]
The EC50 of the first is higher: greater than 10 µM for the first, less than 10 µM for the second. The second is the more potent here.

Compared with Cn1c(=O)oc2cc(NC(=NC(=O)c3ccc(C(F)(F)F)cc3)Nc3ccccc3C(C)(C)C)ccc21 [Compound I-134], CC(C)(C)c1ccccc1NC(=NC(=O)c1ccc(C(F)(F)F)cc1)Nc1ccc2[nH]ncc2c1 [II-18] is lower in EC50: greater than 10 µM for the first, less than 10 µM for the second.

Going from O=C(N=C(Nc1cccc(C2CC2)c1)Nc1ccc2oc(=O)[nH]c2c1)c1ccc(C(F)(F)F)cc1 [Compound I-135] to N#Cc1cccc(C(=O)N=C(Nc2cccc(C3CC3)c2)Nc2ccc3oc(=O)[nH]c3c2)c1 [Compound I-136], the EC50 falls from greater than 10 µM to less than 10 µM. The second is the more potent here.

N#Cc1cccc(C(=O)N=C(Nc2ccc(C3CC3)cc2)Nc2ccc3[nH]c(=O)oc3c2)c1 [Compound I-138] and O=C(N=C(Nc1ccc(-c2ccccc2)cc1)Nc1ccc2[nH]ncc2c1)c1cccc(Cl)c1 [II-15] cannot be ordered by EC50: less than 10 µM for the first, less than 10 µM for the second.

O=C(N=C(Nc1ccc2[nH]ncc2c1)Nc1ccccc1C(F)(F)F)c1ccc(Br)cc1 [II-1] and O=C(N=C(Nc1ccc2[nH]ncc2c1)Nc1ccccc1C(F)(F)F)c1ccc(Cl)cc1 [II-2] cannot be ordered by EC50: less than 10 µM for the first, less than 10 µM for the second.

O=C(N=C(Nc1ccc2[nH]ncc2c1)Nc1ccccc1C(F)(F)F)c1cccc(Cl)c1 [II-3] and CC(C)(C)c1ccccc1NC(=NC(=O)c1cccc(Cl)c1)Nc1ccc2[nH]ncc2c1 [II-7] cannot be ordered by EC50: less than 10 µM for the first, less than 10 µM for the second.

O=C(N=C(Nc1ccc2[nH]ncc2c1)Nc1ccccc1C(F)(F)F)c1ccc(F)cc1 [II-4] and CC(C)(C)c1ccccc1NC(=NC(=O)c1ccc(F)cc1)Nc1ccc2[nH]ncc2c1 [II-8] cannot be ordered by EC50: less than 10 µM for the first, less than 10 µM for the second.

CC(C)(C)c1ccccc1NC(=NC(=O)c1ccc(Br)cc1)Nc1ccc2[nH]ncc2c1 [II-5] and CC(C)(C)c1ccccc1NC(=NC(=O)c1ccc(Cl)cc1)Nc1ccc2[nH]ncc2c1 [II-6] cannot be ordered by EC50: less than 10 µM for the first, less than 10 µM for the second.

O=C(N=C(Nc1ccc2ccccc2c1)Nc1ccc2[nH]ncc2c1)c1ccc(Br)cc1 [II-9] and O=C(N=C(Nc1ccc2ccccc2c1)Nc1ccc2[nH]ncc2c1)c1ccc(Cl)cc1 [II-10] cannot be ordered by EC50: less than 10 µM for the first, less than 10 µM for the second.

O=C(N=C(Nc1ccc2ccccc2c1)Nc1ccc2[nH]ncc2c1)c1cccc(Cl)c1 [II-11] and O=C(N=C(Nc1ccc2ccccc2c1)Nc1ccc2[nH]ncc2c1)c1ccc(F)cc1 [II-12] cannot be ordered by EC50: less than 10 µM for the first, less than 10 µM for the second.

O=C(N=C(Nc1ccc(-c2ccccc2)cc1)Nc1ccc2[nH]ncc2c1)c1ccc(Br)cc1 [II-13] and O=C(N=C(Nc1ccc(-c2ccccc2)cc1)Nc1ccc2[nH]ncc2c1)c1ccc(Cl)cc1 [II-14] cannot be ordered by EC50: less than 10 µM for the first, less than 10 µM for the second.

O=C(N=C(Nc1ccc(-c2ccccc2)cc1)Nc1ccc2[nH]ncc2c1)c1ccc(F)cc1 [II-16] and O=C(N=C(Nc1ccc(Cl)cc1)Nc1ccc2[nH]ncc2c1)c1ccc(Cl)cc1 [II-22] cannot be ordered by EC50: less than 10 µM for the first, less than 10 µM for the second.

O=C(N=C(Nc1cccc(C(F)(F)F)c1)Nc1ccc2[nH]ncc2c1)c1ccc(C(F)(F)F)cc1 [II-17] and O=C(N=C(Nc1cccc(Cl)c1)Nc1ccc2[nH]ncc2c1)c1ccc(C(F)(F)F)cc1 [II-20] cannot be ordered by EC50: less than 10 µM for the first, less than 10 µM for the second.

O=C(N=C(Nc1ccc(Cl)cc1)Nc1ccc2[nH]ncc2c1)c1ccc(C(F)(F)F)cc1 [II-19] and O=C(N=C(Nc1cccc(C(F)(F)F)c1)Nc1ccc2[nH]ncc2c1)c1ccc(Cl)cc1 [II-21] cannot be ordered by EC50: less than 10 µM for the first, less than 10 µM for the second.

First: O=C(N=C(Nc1cccc(Cl)c1)Nc1ccc2[nH]ncc2c1)c1ccc(Cl)cc1 [II-23]
Second: O=C(N=C(NCCc1c[nH]cn1)Nc1ccc2ccccc2c1)c1ccc(Cl)cc1 [III-9]
The EC50 of the first is lower: less than 10 µM for the first, greater than 10 µM for the second.

O=C(N=C(NCCc1c[nH]cn1)Nc1ccccc1C(F)(F)F)c1ccc(Br)cc1 [III-1] and O=C(N=C(NCCc1c[nH]cn1)Nc1ccccc1C(F)(F)F)c1ccc(Cl)cc1 [III-2] cannot be ordered by EC50: greater than 10 µM for the first, greater than 10 µM for the second.

O=C(N=C(NCCc1c[nH]cn1)Nc1ccccc1C(F)(F)F)c1ccc(F)cc1 [III-3] and CC(C)(C)c1ccccc1NC(=NC(=O)c1ccc(F)cc1)NCCc1c[nH]cn1 [III-7] cannot be ordered by EC50: greater than 10 µM for the first, greater than 10 µM for the second.

CC(C)(C)c1ccccc1NC(=NC(=O)c1ccc(Br)cc1)NCCc1c[nH]cn1 [III-4] and CC(C)(C)c1ccccc1NC(=NC(=O)c1ccc(Cl)cc1)NCCc1c[nH]cn1 [III-5] cannot be ordered by EC50: less than 10 µM for the first, less than 10 µM for the second.

CC(C)(C)c1ccccc1NC(=NC(=O)c1cccc(Cl)c1)NCCc1c[nH]cn1 [III-6] and O=C(N=C(NCCc1c[nH]cn1)Nc1ccc2ccccc2c1)c1cccc(Cl)c1 [III-10] cannot be ordered by EC50: less than 10 µM for the first, less than 10 µM for the second.

First: O=C(N=C(NCCc1c[nH]cn1)Nc1ccc2ccccc2c1)c1ccc(Br)cc1 [III-8]
Second: O=C(N=C(NCCc1c[nH]cn1)Nc1ccc2ccccc2c1)c1ccc(F)cc1 [III-11]
The EC50 of the first is lower: less than 10 µM for the first, greater than 10 µM for the second. The first is the more potent here.
